Reference: patent US6562632B1, “Reactive derivatives of sulforhodamine 101 with enhanced hydrolytic stability” (Molecular Probes, Inc., priority 1995, dated 2003)
“And” between values parts separate entries of the source, which are not always exact repeats. Identical values can stand only once.

Legend:
[1] = target: bovine serum albumin (BSA) (Bos taurus, UniProt P02769); assay: Protein labeling with reactive dye, degree of substitution on BSA; conditions: Dye:Protein Ratio 15
Protocol: A fresh solution of the desired protein is prepared that is 10 mg protein/mL in 0.1 M sodium bicarbonate. […] Predetermined amounts of the labeling reagent in DMF are slowly added to the protein solution with stirring. A molar ratio of 10 equivalents dye to equivalent of protein is typical, though the optimal amount varies with particular labeling reagent and protein being labeled. The reaction mixture is incubated at room temperature for one hour. The dye-protein conjugate is separated from free unreacted reagent by gel filtration on a CELLUFINE GH-25 column equilibrated in PBS. The initial, protein-containing colored band is collected from the column, and the degree of substitution is determined by measuring the absorbance of the conjugate at 595 nm, and calculating the degree of substitution using an extinction coefficient of 80,000 cm^−1M^−1 for the dye.

streptavidin (STR) = streptavidin (STR) (Streptomyces avidinii, UniProt P22629); assay: Protein labeling with reactive dye, degree of substitution on streptavidin; conditions: for Degree of Substitution: STR
streptavidin (STR), sequence (P22629 25-183, species assumed): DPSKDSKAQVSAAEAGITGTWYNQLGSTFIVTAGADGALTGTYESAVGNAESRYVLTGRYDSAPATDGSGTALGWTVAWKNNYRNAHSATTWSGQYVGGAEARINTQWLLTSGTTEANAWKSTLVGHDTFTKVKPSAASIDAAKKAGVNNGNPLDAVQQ
Protocol: Protein conjugates of sulforhodamine 101 are prepared using Compound 2 (Example 2). The degree of substitution achieved on the selected proteins (bovine serum albumin (BSA), goat anti-mouse IgG (GAM) or streptavidin (STR)) is then determined.
A fresh solution of the desired protein is prepared that is 10 mg protein/mL in 0.1 M sodium bicarbonate. The labeling reagent (Compound 2) is dissolved in DMF to give a concentration of 10 mg dye/mL. Predetermined amounts of the labeling reagent in DMF are slowly added to the protein solution with stirring. A molar ratio of 10 equivalents dye to equivalent of protein is typical, though the optimal amount varies with particular labeling reagent and protein being labeled. The reaction mixture is incubated at room temperature for one hour. The dye-protein conjugate is separated from free unreacted reagent by gel filtration on a CELLUFINE GH-25 column equilibrated in PBS. The initial, protein-containing colored band is collected from the column, and the degree of substitution is determined by measuring the absorbance of the conjugate at 595 nm, and calculating the degree of substitution using an extinction coefficient of 80,000 cm^−1M^−1 for the dye.
Dye conjugates are similarly prepared using SSC excepting that the protein solution is maintained at pH 9, and the labeling reaction is conducted at ice bath temperatures to minimize hydrolysis of the labeling reagent.

[2] = 90% DMF and 10% aqueous sodium bicarbonate; two hours of incubation; TLC
Protocol: Compound 2 and SSC are separately dissolved in solutions that are 90% DMF and 10% aqueous sodium bicarbonate. Each solution is analyzed using thin layer chromatography (TLC) as follows: An aliquot from each sample is diluted 1:100 in methanol and 1 μL of the resulting solution is spotted on a silica gel TLC plate and developed in 15% methanol in chloroform.

bovine serum albumin (BSA), sequence (P02769 25-607): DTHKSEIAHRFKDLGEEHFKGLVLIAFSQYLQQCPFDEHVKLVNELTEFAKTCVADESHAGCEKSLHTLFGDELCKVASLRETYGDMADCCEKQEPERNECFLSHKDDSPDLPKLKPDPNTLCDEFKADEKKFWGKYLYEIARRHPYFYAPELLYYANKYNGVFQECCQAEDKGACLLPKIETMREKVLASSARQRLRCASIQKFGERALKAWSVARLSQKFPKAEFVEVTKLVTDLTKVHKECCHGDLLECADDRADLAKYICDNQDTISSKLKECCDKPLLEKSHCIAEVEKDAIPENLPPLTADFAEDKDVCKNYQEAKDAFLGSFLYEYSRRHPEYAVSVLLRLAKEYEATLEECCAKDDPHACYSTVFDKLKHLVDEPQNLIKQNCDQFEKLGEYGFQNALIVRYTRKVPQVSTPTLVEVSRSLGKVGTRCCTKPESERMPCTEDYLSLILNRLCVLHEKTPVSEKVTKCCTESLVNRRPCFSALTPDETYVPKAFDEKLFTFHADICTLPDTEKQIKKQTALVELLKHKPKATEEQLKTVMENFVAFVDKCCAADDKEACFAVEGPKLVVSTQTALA

Molecule	Degree of Substitution [1]	Degree of Substitution (streptavidin (STR); Dye:Protein Ratio 1)	Degree of Substitution (streptavidin (STR); Dye:Protein Ratio 2.5)	Degree of Substitution (streptavidin (STR); Dye:Protein Ratio 5.5)	Degree of Substitution (streptavidin (STR); Dye:Protein Ratio 8.0)	Degree of Substitution (streptavidin (STR); Dye:Protein Ratio 10)	Degree of Substitution (streptavidin (STR); Dye:Protein Ratio 20)	Degree of Substitution (streptavidin (STR); Dye:Protein Ratio 30)	Decomposition in the presence of water [2]	Degree of substitution of the streptavidin conjugates used as immunoreagents (streptavidin (STR); two conjugates used in Example 24)
O=C(CCCCCNS(=O)(=O)c1ccc(C2=c3cc4c5c(c3Oc3c2cc2c6c3CCCN6CCC2)CCC[N+]=5CCC4)c(S(=O)(=O)[O-])c1)ON1C(=O)CCC1=O [Compound 2]	4.5	0.76	1.6	4.4	5.6	6.0	6.0	6.9	10-20%	
streptavidin conjugates of SSC: two streptavidin conjugates prepared with SSC [reference compound]										2.4 dyes per mole and 3.9 dyes per mole
sulfonyl chloride of sulforhodamine 101 [SSC, reference compound]	3.2	0.066	1.2	2.4	3.0	3.9	4.9	5.1		
